# Laboratory results published in US20060148858A1, “1, 2-Azole derivatives with hypoglycemic and hypolipidemic activity” (priority 2002, published 2006).
# Molecular target: T1, PPARδ-RXRα heterodimer (Homo sapiens, UniProt Q03181)
# T1 construct: expressed in transfected cells; host or cells: COS-1
# T1 sequence (Q03181 1-441): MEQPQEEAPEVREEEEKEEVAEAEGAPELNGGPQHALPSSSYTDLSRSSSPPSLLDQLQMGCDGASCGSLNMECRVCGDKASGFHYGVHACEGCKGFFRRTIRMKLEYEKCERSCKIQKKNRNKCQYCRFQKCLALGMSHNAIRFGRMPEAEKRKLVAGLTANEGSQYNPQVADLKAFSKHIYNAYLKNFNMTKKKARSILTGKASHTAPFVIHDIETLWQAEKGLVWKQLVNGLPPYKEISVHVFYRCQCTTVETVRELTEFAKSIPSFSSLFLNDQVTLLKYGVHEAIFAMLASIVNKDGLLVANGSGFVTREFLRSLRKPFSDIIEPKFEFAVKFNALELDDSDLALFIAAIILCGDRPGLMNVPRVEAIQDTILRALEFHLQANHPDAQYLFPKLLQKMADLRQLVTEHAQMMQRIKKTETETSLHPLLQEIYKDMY
# T1 sequence (P19793 1-462 partner): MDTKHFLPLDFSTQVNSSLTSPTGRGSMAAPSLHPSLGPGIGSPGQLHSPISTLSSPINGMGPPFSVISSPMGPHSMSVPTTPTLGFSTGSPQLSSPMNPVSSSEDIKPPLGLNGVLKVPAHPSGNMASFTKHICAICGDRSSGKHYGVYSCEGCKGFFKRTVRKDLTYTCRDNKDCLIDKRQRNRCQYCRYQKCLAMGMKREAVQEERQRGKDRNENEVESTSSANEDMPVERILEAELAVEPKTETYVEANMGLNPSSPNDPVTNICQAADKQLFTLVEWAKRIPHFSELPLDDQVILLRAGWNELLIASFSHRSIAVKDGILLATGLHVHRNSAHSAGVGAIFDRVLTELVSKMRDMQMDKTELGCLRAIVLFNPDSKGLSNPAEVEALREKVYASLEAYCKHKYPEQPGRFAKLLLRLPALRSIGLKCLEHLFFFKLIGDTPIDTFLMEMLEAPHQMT
# Assay: PPARδ-RXRα heterodimer ligand activity, luciferase reporter in COS-1 transformant (Test Example 4)
# Assay type: cell-based
# Settings: COS-1 transformant (hPPARδ, hRXRα, reporter), 36-48 hours, concentration for 50% of the maximum fold induction
# Procedure, shortened: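 COS-1 cells transiently co-transfected with human PPARδ, human RXRα, PPRE-luciferase reporter and pRL-tk, then exposed to compound 36-48 h at 37 °C in DMEM with 0.1% fatty acid-free BSA. Luciferase read as fold induction over untreated; EC50 at 50% of maximal fold induction.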
row,Structure (SMILES),EC50
1,"CCC(CC)c1nn(-c2ccc(C(F)(F)F)nn2)cc1CCCOc1c(C)cccc1CC(=O)O [Example 340, [2-(3-{3-(1-ethylpropyl)-1-[6-(trifluoromethyl)pyridazin-3-yl]-1H-pyrazol-4-yl}propoxy)-3-methylphenyl]acetic acid]",45 nM
2,"CCCc1nn(-c2ccc(C(F)(F)F)cn2)cc1CCCOc1c(C)cccc1CC(=O)O [Example 319, [3-methyl-2-(3-{3-propyl-1-[5-(trifluoromethyl)-2-pyridinyl]-1H-pyrazol-4-yl}propoxy)phenyl]acetic acid]",5.1 nM
3,"CCOc1nn(-c2ccc(C(F)(F)F)cn2)cc1CCCOc1ccccc1CC(=O)O [Example 31, (2-(3-{3-ethoxy-1-[5-(trifluoromethyl)-2-pyridyl]-1H-pyrazol-4-yl}propoxy)phenyl]acetic acid]",9.6 nM
4,"COc1ccc(CC(=O)O)cc1OCCCc1cn(-c2ccc(C(F)(F)F)cn2)nc1C1CCCCC1 [Example 304, [3-(3-{3-cyclohexyl-1-[5-(trifluoromethyl)-2-pyridinyl]-1H-pyrazol-4-yl}propoxy)-4-methoxyphenyl]acetic acid]",5.7 nM
5,"O=C(O)CCc1cc(OCCCc2cn(-c3ccc(C(F)(F)F)cn3)nc2-c2ccccc2)nn1-c1ccccc1 [Example 125, 3-[1-phenyl-3-(3-{3-phenyl-1-[5-(trifluoromethyl)-2-pyridyl]-1H-pyrazol-4-yl}propoxy)-1H-pyrazol-5-yl]propionic acid]",1.5 nM
6,"CCOc1nn(-c2ccc(C(F)(F)F)cn2)cc1CCCCOc1ccccc1CC(=O)O [Example 137, [2-(4-{3-ethoxy-1-[5-(trifluoromethyl)-2-pyridyl]-1H-pyrazol-4-yl}butoxy)phenyl]acetic acid]",9.6 nM
7,"CCCc1nn(-c2ccc(C(F)(F)F)cn2)cc1CCCCOc1cc(CCC(=O)O)n(-c2ccccc2)n1 [Example 58, 3-[1-phenyl-3-(4-{3-propyl-1-[5-(trifluoromethyl)-2-pyridinyl]-1H-pyrazol-4-yl}butoxy)-1H-pyrazol-5-yl]propanoic acid]",1.9 nM
8,"CCc1cccc(CC(=O)O)c1OCCCc1cn(-c2ccc(C(F)(F)F)cn2)nc1C(C)C [Example 227, [3-ethyl-2-(3-{3-isopropyl-1-[5-(trifluoromethyl)-2-pyridinyl]-1H-pyrazol-4-yl}propoxy)phenyl]acetic acid]",54 nM
9,"CCOc1nn(-c2ccc(C(F)(F)F)cn2)cc1CCCOc1cc(CCC(=O)O)n(-c2ccccc2)n1 [Example 42, 3-[3-(3-{3-ethoxy-1-[5-(trifluoromethyl)-2-pyridyl]-1H-pyrazol-4-yl}propoxy)-1-phenyl-1H-pyrazol-5-yl]propionic acid]",1.9 nM
10,"CCOc1nn(-c2ccc(C(F)(F)F)cn2)cc1CCCOc1ccc(CCC(=O)O)c(OC(C)C)c1 [Example 116, 3-[4-(3-{3-ethoxy-1-[5-(trifluoromethyl)-2-pyridinyl]-1H-pyrazol-4-yl}propoxy)-2-isopropoxyphenyl]propanoic acid]",0.6 nM
11,"CC(C)c1nn(-c2ccc(C(F)(F)F)cn2)cc1CCCOc1cc(CCC(=O)O)n(-c2ccccc2)n1 [Example 24, 3-[3-(3-{3-isopropyl-1-[5-(trifluoromethyl)-2-pyridyl]-1H-pyrazol-4-yl}propoxy)-1-phenyl-1H-pyrazol-5-yl]propionic acid]",9.3 nM
12,"COc1cccc(CC(=O)O)c1OCCCc1cn(-c2ccc(C(F)(F)F)cn2)nc1C(C)C [Example 181, [2-(3-{3-isopropyl-1-[5-(trifluoromethyl)-2-pyridyl]-1H-pyrazol-4-yl}propoxy)-3-methoxyphenyl]acetic acid]",84 nM
13,"CCC(CC)c1nn(-c2ccc(C(F)(F)F)cn2)cc1CCCOc1c(C)cccc1CC(=O)O [Example 213, [2-(3-{3-(1-ethylpropyl)-1-[5-(trifluoromethyl)-2-pyridyl]-1H-pyrazol-4-yl}propoxy)-3-methylphenyl]acetic acid]",8.3 nM
14,"O=C(O)CCc1cc(OCCCc2cn(-c3ccc(C(F)(F)F)cn3)nc2C2CCCCC2)nn1-c1ccccc1 [Example 189, 3-[3-(3-{3-cyclohexyl-1-[5-(trifluoromethyl)-2-pyridyl]-1H-pyrazol-4-yl}propoxy)-1-phenyl-1H-pyrazol-5-yl]propionic acid]",2.1 nM
15,"CCOc1nn(-c2ccc(C(F)(F)F)cn2)cc1CCCOc1cccc(CC(=O)O)c1 [Example 30, [3-(3-{3-ethoxy-1-[5-(trifluoromethyl)-2-pyridyl]-1H-pyrazol-4-yl}propoxy)phenyl]acetic acid]",2.6 nM
16,"CCCc1nn(-c2ccc(C(F)(F)F)cn2)cc1CCCOc1c(Br)cccc1CC(=O)O [Example 237, [3-bromo-2-(3-{3-propyl-1-[5-(trifluoromethyl)-2-pyridinyl]-1H-pyrazol-4-yl}propoxy)phenyl]acetic acid]",6.1 nM
17,"CCCc1nn(-c2ccc(C(F)(F)F)cn2)cc1CCCOc1cc(CCC(=O)O)n(-c2ccccc2)n1 [Example 43, 3-[1-phenyl-3-(3-{3-propyl-1-[5-(trifluoromethyl)-2-pyridyl]-1H-pyrazol-4-yl}propoxy)-1H-pyrazol-5-yl]propionic acid]",3.7 nM
18,"COc1cccc(CC(=O)O)c1OCCCc1cn(-c2ccc(Cl)cn2)nc1C(C)C [Example 311, (2-{3-[1-(5-chloro-2-pyridinyl)-3-isopropyl-1H-pyrazol-4-yl]propoxy}-3-methoxyphenyl)acetic acid]",280 nM
19,"Cc1cccc(CC(=O)O)c1OCCCc1cn(-c2ccc(C(F)(F)F)cn2)nc1C1CCCCC1 [Example 316, [2-(3-{3-cyclohexyl-1-[5-(trifluoromethyl)-2-pyridinyl]-1H-pyrazol-4-yl}propoxy)-3-methylphenyl]acetic acid]",9.9 nM
20,"CCC(CC)c1nn(-c2ccc(C(F)(F)F)cn2)cc1CCCOc1c(CC(=O)O)cccc1OC [Example 212, [2-(3-{3-(1-ethylpropyl)-1-[5-(trifluoromethyl)-2-pyridyl]-1H-pyrazol-4-yl}propoxy)-3-methoxyphenyl]acetic acid]",42 nM
21,"Cc1cccc(CC(=O)O)c1OCCCc1cn(-c2ccc(C(F)(F)F)nn2)nc1C(C)(C)C [Example 367, [2-(3-{3-tert-butyl-1-[6-(trifluoromethyl)pyridazin-3-yl]-1H-pyrazol-4-yl}propoxy)-3-methylphenyl]acetic acid]",150 nM
22,"CCc1cccc(CC(=O)O)c1OCCCc1cn(-c2ccc(C(F)(F)F)nn2)nc1C(C)C [Example 245, [3-ethyl-2-(3-{3-isopropyl-1-[6-(trifluoromethyl)pyridazin-3-yl]-1H-pyrazol-4-yl}propoxy)phenyl]acetic acid]",130 nM
23,"CCOc1nn(-c2ccc(C(F)(F)F)cn2)cc1CCCCOc1cc(CCC(=O)O)n(-c2ccccc2)n1 [Example 104, 3-[3-(4-{3-ethoxy-1-[5-(trifluoromethyl)-2-pyridinyl]-1H-pyrazol-4-yl}butoxy)-1-phenyl-1H-pyrazol-5-yl]propanoic acid]",7 nM
24,"CCOc1ccc(CC(=O)O)cc1OCCCc1cn(-c2ccc(C(F)(F)F)cn2)nc1C1CCCCC1 [Example 201, [3-(3-{3-cyclohexyl-1-[5-(trifluoromethyl)-2-pyridyl]-1H-pyrazol-4-yl}propoxy)-4-ethoxyphenyl]acetic acid]",1.2 nM
25,"CCCc1nn(-c2ccc(C(F)(F)F)cn2)cc1CCCOc1ccc(CCC(=O)O)c(OCC)c1 [Example 98, 3-[2-ethoxy-4-(3-{3-propyl-1-[5-(trifluoromethyl)-2-pyridinyl]-1H-pyrazol-4-yl}propoxy)phenyl]propanoic acid]",1.2 nM
26,"COc1cccc(CC(=O)O)c1OCCCc1cn(-c2ccc(C(F)(F)F)nn2)nc1C(C)C [Example 274, [2-(3-{3-isopropyl-1-[6-(trifluoromethyl)pyridazin-3-yl]-1H-pyrazol-4-yl}propoxy)-3-methoxyphenyl]acetic acid]",320 nM
27,"CCC(CC)c1nn(-c2ccc(Br)cn2)cc1CCCOc1c(CC(=O)O)cccc1OC [Example 351, (2-{3-[1-(5-bromo-2-pyridinyl)-3-(1-ethylpropyl)-1H-pyrazol-4-yl]propoxy}-3-methoxyphenyl)acetic acid]",72 nM
28,"CCC(CC)c1nn(-c2ccc(Cl)cn2)cc1CCCOc1c(CC(=O)O)cccc1OC [Example 223, (2-{3-[1-(5-chloro-2-pyridyl)-3-(1-ethylpropyl)-1H-pyrazol-4-yl]propoxy}-3-methoxyphenyl)acetic acid]",97 nM
